Results from patent publication US20140037630A1, “METHODS FOR TREATING MICA-RELATED DISORDERS” (DANA-FARBER CANCER INSTITUTE, INC., priority 2006, published 2014).

Experiments:
RPMI-8226 MM cells = experiment: Immunoblotting for DNA damage response (phospho-ATM, phospho-chk-2) in RPMI-8226 MM cells; format: cell-based; conditions: 20 μM Bortezomib or 250 μg/ml dexamethasone
Description: (§1) Antibodies used for immunoblotting were: anti-phospho-ATM (ser 1981), anti-ATM, anti-phospho-ATR (ser 428), anti-ATR, anti-phospho-chk-1 (ser 280) and anti-phospho-chk-2 (thr 68) (Cell Signaling, Beverly, Mass.). Immunoblotting was performed according to standard methods. In some experiments, U226 cells were transiently transfected with expression plasmids encoding human chk-1 shRNA (5′-[…]-3′) (SEQ ID NO: 1), chk-2 shRNA, or ATM shRNA (Upstate cell signaling, Lake Placid, N.Y.) according to the manufacturer's instructions. The efficiency of gene knockdown was 50%-90% as assessed by immunoblotting.
(§2) U226, RPMI, and MM-1R cells were obtained from the American Type Culture Collection (Manassas, Va.), and MM-1S cells were a gift of Dr. Steven Rosen (Northwestern University). […] U226-MICA cells were generated with retroviral mediated gene transfer according to standard methods.
(§3) The effect of the proteasome inhibitor Bortezomib, a MM therapeutic, on MICA expression and the DNA damage response pathway was analyzed. U226 and RPMI-8226 MM cells were treated with 20 μM Bortezomib, 250 μg/ml dexamethasone or 10 μg/ml aphidicolin (a DNA polymerase inhibitor that served as a control for inducing DNA damage) for the indicated times. Cell lysates were prepared and evaluated for phospho-ATM (ser 1981), ATM, phospho-chk-2 (thr 68) or chk-2 by immunoblotting. […]

U226 MM cells [1] = experiment: Surface MICA expression by flow cytometry in U226 MM cells; format: cell-based; conditions: 20 μM Bortezomib overnight
Description: (§4) PBMCs and bone marrow aspirates were processed by Ficoll-Hypaque (Pharmacia) density-gradient centrifugation. PBMCs from healthy donors or patients were incubated for 48 hours in patient or control sera (10%) in complete media and stained with PE-conjugated anti-NKG2D mAb (Pharmingen), FITC-conjugated anti-CD3 mAb (BD-Biosciences Pharmingen), and either PC5-conjugated anti-CD8 mAb or PC5-conjugated anti-CD56 mAb (Beckman-Coulter). In Examples 9-11, antibodies used, in addition to the above, were: FITC-conjugated anti-CD138, PE-conjugated anti-MICA mAb (R&D Systems), and anti-ERp5 (Axxora Platform) followed by FITC-conjugated anti-rabbit (Southern Biotech). Cells were analyzed with a FW501 flow cytometer (Beckman-Coulter) and FlowJo software (Tree Star). Cells were gated for CD3^+CD8^+ T cells and CD3^−CD56^+ NK cells. […] Cells were analyzed with a FACScan cytometer (Becton Dickinson). […]
(§5) For the experiment shown in FIG. 16B, the indicated MM cells were treated with 20 μM Bortezomib overnight and surface MICA expression was determined with flow cytometry. […] IFN-γ production was measured by ELISPOT against dendritic cells loaded with U226 MM cells. […]

MM-1R MM cells = experiment: Surface MICA expression by flow cytometry in MM-1R MM cells; format: cell-based; conditions: 20 μM Bortezomib overnight
Description: as §4, §5

MM-1S cells = experiment: Immunoblotting for phospho-ATM and total ATM in MM-1S cells; format: cell-based; conditions: 10 μM Bortezomib
Description: as §1, §2, §3

U226 MM cells [2] = experiment: Dendritic cell cross-presentation of MGUS sera-coated treated U226 MM cells, IFN-γ ELISPOT of CD8+ T cells; format: cell-based; conditions: drug treated U226 MM cells coated with MGUS sera; CD8+ T cells stimulated seven days
Description: Donor peripheral blood mononuclear cells (PBMCs) were incubated in 10% patient sera as described above, and NK cells, isolated by magnetic cell sorting (Miltenyl Biotech), were tested in four-hour lysis assays against ^51Cr-labeled K562 target cells. The spontaneous release in all assays was less than 20% of the maximum. Dendritic cells (generated from adherent PBMCs with GM-CSF and IL-4) were co-cultured with opsonized tumor cells (1:1 ratio) for 20 hours, matured with LPS (Sigma-Aldrich) for 24 hours, and then used to stimulate autologous CD8+ T cells, isolated by magnetic cell sorting, for seven days. Antigen specific IFN-γ production was then determined by ELISPOT. For enzyme-linked immunospot (ELISPOT) analysis, ImmunoSpotplates (Cellular Technology) were coated overnight at 37° C. with 10 μg/ml anti-IFN-γ mAb (Mabtech). […] Spots were developed by using BCIP/NBT as a color development substrate and counted with an ImmunoSpot microplate reader (Cellular Technology, Cleveland).
as §5

U226 MM cells [3] = experiment: Immunoblotting for DNA damage response (phospho-ATM, phospho-chk-2) in U226 MM cells; format: cell-based
Description: as §1, §2, §3

MICA = experiment: Anti-MICA antibody ELISA with recombinant MICA protein on longitudinal patient sera; format: in vivo, human; conditions: patient MEL15; sera diluted 1:500
Description: (§6) Anti-MICA antibodies and sMICA levels were measured with ELISAs using recombinant MICA protein (ProSpec-Tany TechnoGene Inc.) and anti-human MICA monoclonal antibodies (R&D Systems). The lower limits of the assay were 90 pg/ml. The Wilcoxon rank sum test with no adjustments for multiple comparisons was used to analyze the differences among the normal donors, MGUS, and MM patients. For complement assays, 293T and 293-T-MICA cells, generated by retroviral mediated gene transfer were incubated with patient sera and human complement (Sigma-Aldrich) and lysis quantified using MTT (Roche Diagnostic GmbH).
The humoral response to MICA was analyzed by an ELISA with recombinant MICA protein as described in Example 1. Longitudinal sera samples from MEL15 were diluted 1:500. Downward arrows denote tumor cell vaccinations and upward arrows depict infusions of MDX-010.
Patient M37 entered study with visceral melanoma metastases, which were completely resected for vaccine manufacture. […] Subsequent isolated recurrences were processed into additional vaccines, whereas the patient succumbed to progressive disease 4.5 years after study entry.

sMICA = sMICA ELISA on longitudinal MEL15 sera; format: in vivo, human; conditions: patient MEL15 sera
Description: as §6
Soluble MICA (sMICA) levels were also analyzed. […] The reduction in sMICA was confirmed with immunoblotting analysis of MEL15 sera using an anti-MICA monoclonal antibody.

| Molecule | phosphorylation of ATM (ser 1981) and chk-2 (thr 68) (RPMI-8226 MM cells) | surface expression of MICA (U226 MM cells [1]) | surface expression of MICA (MM-1R MM cells) | ATM (total ATM, immunoblot) (MM-1S cells) | dendritic cell cross-presentation of treated U226 cells by MGUS sera (IFN-γ ELISPOT) (U226 MM cells [2]) | ATM phosphorylation (ser 1981) (U226 MM cells [3]; 10 μM Bortezomib) | phosphorylation of ATM (ser 1981) and chk-2 (thr 68) (U226 MM cells [3]; 20 μM Bortezomib or 250 μg/ml dexamethasone) | anti-MICA antibody titers (MICA) | sMICA levels (sMICA) |
| --- | --- | --- | --- | --- | --- | --- | --- | --- | --- |
| CC(C)C[C@H](NC(=O)[C@H](Cc1ccccc1)NC(=O)c1cnccn1)B(O)O [Bortezomib] | but not RPMI MM cells | increased the surface expression of MICA | increased the surface expression of MICA | stimulated the degradation of ATM | as efficiently as U226-MICA cells | induced ATM phosphorylation | triggered the rapid phosphorylation |  |  |
| MDX-010: fully human anti-CTLA-4 blocking monoclonal antibody |  |  |  |  |  |  |  | elevated levels of anti-MICA antibodies | sharp decrease |
